{
  "source": "ChEMBL document CHEMBL4765232",
  "about": "(J Med Chem, 2016)",
  "key": {"[1]": {"assay": "Unbound clearance in Beagle dog at 1 mg/kg, iv", "type": "ADME, organism-based, Canis lupus familiaris", "settings": "in vivo"}, "[2]": {"assay": "AUC (0 to infinity) in Balb/c mouse at 100 mg/kg, po formulated in 0.5 % methyl cellulose maintained at pH 3 to 4", "type": "ADME, organism-based", "parameters": "time infinity, route oral, dose 100 mg/kg", "settings": "in vivo, pH 3, 100 mg/kg"}, "[3]": {"assay": "Unbound clearance in Balb/c mouse at 1 mg/kg, iv formulated with 5:60:35 DMA/PEG400/20% SBECD", "type": "ADME, organism-based", "settings": "in vivo"}, "[4]": {"assay": "Half life in Balb/c mouse plasma at 1 mg/kg, iv formulated with 5:60:35 DMA/PEG400/20% SBECD", "type": "ADME, organism-based"}, "KARPAS-422 [5]": {"system": "KARPAS-422", "assay": "Antitumor activity against human KARPAS-422 cells harboring EZH2 Y641N mutant xenografted in CB17 SCID mouse assessed as tumor growth inhibition at 160 mg/kg, po BID administered for 25 days and measured post-treatment by caliper method relative to control", "type": "functional", "settings": "KARPAS-422, po, 600 h, time 25 day, read-out: TGI"}, "[6]": {"assay": "Oral bioavailability in Beagle dog at 5 mg/kg", "type": "ADME, organism-based, Canis lupus familiaris", "settings": "in vivo"}, "[7]": {"assay": "Half life in Sprague-Dawley rat plasma at 1 mg/kg, iv", "type": "ADME, organism-based"}, "[8]": {"assay": "Cmax in Balb/c mouse at 100 mg/kg, po formulated in 0.5 % methyl cellulose maintained at pH 3 to 4", "type": "ADME, organism-based", "parameters": "route oral, dose 100 mg/kg", "settings": "in vivo, pH 3, 100 mg/kg"}, "Cytochrome P450 2C8": {"target": "T1, Cytochrome P450 2C8 (Homo sapiens, UniProt P10632)", "T1 sequence (P10632 whole entry)": "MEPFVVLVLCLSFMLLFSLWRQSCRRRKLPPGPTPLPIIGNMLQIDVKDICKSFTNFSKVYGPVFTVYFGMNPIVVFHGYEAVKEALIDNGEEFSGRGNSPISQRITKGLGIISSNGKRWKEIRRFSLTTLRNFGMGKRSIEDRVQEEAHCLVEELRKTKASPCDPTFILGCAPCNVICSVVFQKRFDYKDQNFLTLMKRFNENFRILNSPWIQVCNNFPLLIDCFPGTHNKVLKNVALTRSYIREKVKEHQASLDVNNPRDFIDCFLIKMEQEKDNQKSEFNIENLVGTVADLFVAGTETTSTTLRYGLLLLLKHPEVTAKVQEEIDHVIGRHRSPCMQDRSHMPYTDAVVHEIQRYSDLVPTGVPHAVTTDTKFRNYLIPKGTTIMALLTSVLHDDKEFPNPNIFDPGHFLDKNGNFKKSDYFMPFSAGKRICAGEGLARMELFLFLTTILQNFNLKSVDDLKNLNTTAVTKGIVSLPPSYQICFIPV", "assay": "Time dependent inhibition of CYP2C8 (unknown origin)", "type": "ADME"}, "[9]": {"assay": "Cmax in Beagle dog at 5 mg/kg, po", "type": "ADME, organism-based, Canis lupus familiaris", "parameters": "route oral, dose 5 mg/kg", "settings": "in vivo"}, "[10]": {"assay": "AUC (0 to infinity) in Beagle dog at 5 mg/kg, po", "type": "ADME, organism-based, Canis lupus familiaris", "parameters": "route oral, time infinity, dose 5 mg/kg", "settings": "in vivo"}, "[11]": {"assay": "Clearance in Balb/c mouse at 1 mg/kg, iv formulated with 5:60:35 DMA/PEG400/20% SBECD relative to liver blood flow", "type": "ADME, organism-based", "settings": "in vivo"}, "CYP2D6": {"target": "CYP2D6 (Homo sapiens, UniProt P10635)", "sequence (P10635 whole entry)": "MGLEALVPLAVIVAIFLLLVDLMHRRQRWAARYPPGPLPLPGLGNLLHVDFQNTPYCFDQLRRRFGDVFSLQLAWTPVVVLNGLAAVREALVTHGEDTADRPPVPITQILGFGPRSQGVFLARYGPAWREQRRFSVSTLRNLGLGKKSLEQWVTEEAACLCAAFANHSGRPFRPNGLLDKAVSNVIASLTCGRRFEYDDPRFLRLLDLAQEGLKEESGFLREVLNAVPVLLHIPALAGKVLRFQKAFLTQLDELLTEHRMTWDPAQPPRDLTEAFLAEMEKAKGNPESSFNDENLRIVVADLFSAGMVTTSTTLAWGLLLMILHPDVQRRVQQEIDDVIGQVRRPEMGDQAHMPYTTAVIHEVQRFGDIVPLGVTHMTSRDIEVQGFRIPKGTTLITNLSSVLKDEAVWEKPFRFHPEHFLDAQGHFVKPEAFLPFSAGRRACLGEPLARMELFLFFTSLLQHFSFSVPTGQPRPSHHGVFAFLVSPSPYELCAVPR", "assay": "Inhibition of CYP2D6 (unknown origin) at 10 uM relative to control", "type": "ADME"}, "[12]": {"assay": "Intrinsic clearance in dog liver microsomes assessed per mg protein", "type": "ADME, Canis lupus familiaris, Microsome"}, "[13]": {"target": "T2, Histone-lysine N-methyltransferase EZH1 (Homo sapiens, UniProt Q92800)", "T2 sequence (Q92800 whole entry)": "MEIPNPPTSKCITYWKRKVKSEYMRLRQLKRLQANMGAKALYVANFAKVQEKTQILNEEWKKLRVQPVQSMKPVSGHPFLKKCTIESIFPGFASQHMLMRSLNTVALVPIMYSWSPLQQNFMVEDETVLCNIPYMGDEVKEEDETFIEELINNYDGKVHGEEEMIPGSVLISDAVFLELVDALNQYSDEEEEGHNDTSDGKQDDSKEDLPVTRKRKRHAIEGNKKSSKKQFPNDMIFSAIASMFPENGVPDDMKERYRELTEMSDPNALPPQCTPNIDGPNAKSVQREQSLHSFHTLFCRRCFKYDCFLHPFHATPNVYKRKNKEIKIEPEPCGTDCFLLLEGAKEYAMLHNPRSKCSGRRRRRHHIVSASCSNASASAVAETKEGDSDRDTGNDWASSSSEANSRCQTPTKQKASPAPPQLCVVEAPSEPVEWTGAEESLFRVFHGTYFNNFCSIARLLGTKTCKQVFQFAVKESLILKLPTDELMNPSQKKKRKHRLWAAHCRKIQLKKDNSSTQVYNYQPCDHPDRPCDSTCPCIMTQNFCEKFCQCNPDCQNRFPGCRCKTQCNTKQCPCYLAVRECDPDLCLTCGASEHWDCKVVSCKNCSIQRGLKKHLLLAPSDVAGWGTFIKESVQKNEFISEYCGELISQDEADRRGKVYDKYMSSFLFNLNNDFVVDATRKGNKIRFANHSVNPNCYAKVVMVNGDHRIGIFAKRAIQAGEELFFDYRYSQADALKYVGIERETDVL", "description": "Inhibition of EZH1 (unknown origin)"}, "[14]": {"assay": "Toxicity in CB17 SCID mouse xenografted with human KARPAS-422 cells harboring EZH2 Y641N mutant assessed as effect body weight loss at 160 mg/kg, po BID administered for 25 days", "type": "organism-based", "settings": "in vivo, 600 h, time 25 day"}, "CYP2C9": {"target": "CYP2C9 (Homo sapiens, UniProt P11712)", "sequence (P11712 whole entry)": "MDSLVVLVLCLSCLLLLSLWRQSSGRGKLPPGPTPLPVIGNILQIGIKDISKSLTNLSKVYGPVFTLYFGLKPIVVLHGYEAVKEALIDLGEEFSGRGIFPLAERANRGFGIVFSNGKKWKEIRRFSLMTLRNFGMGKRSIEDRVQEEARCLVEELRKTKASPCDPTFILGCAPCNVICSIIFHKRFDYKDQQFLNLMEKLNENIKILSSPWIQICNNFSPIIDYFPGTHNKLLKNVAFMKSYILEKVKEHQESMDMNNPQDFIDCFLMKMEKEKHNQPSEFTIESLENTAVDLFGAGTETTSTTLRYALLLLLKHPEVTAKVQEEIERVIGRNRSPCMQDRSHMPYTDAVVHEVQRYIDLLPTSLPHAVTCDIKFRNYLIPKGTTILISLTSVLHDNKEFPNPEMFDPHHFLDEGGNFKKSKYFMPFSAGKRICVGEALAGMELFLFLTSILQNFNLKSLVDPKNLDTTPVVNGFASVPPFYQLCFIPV", "assay": "Inhibition of CYP2C9 (unknown origin) at 10 uM relative to control", "type": "ADME"}, "Cytochrome P450 2D6": {"target": "Cytochrome P450 2D6 (Homo sapiens, UniProt P10635)", "sequence (P10635 whole entry)": "as the sequence (P10635 whole entry) above", "assay": "Time dependent inhibition of CYP2D6 (unknown origin)", "type": "ADME"}, "KARPAS-422 [15]": {"system": "KARPAS-422", "assay": "Antitumor activity against human KARPAS-422 cells harboring EZH2 Y641N mutant xenografted in CB17 SCID mouse assessed as tumor regression at 160 mg/kg, po BID and measured within 2 weeks by caliper method", "type": "functional, organism-based"}, "CYP2C8": {"target": "T3, CYP2C8 (Homo sapiens, UniProt P10632)", "T3 sequence (P10632 whole entry)": "T1 sequence (P10632 whole entry)", "assay": "Inhibition of CYP2C8 (unknown origin) at 10 uM relative to control", "type": "ADME"}, "[16]": {"assay": "Volume of distribution at steady in Balb/c mouse at 1 mg/kg, iv formulated with 5:60:35 DMA/PEG400/20% SBECD", "type": "ADME, organism-based", "settings": "in vivo, read-out: Vdss"}, "[17]": {"assay": "Half life in Beagle dog plasma at 1 mg/kg, iv", "type": "ADME, organism-based, Canis lupus familiaris"}, "[18]": {"assay": "Unbound AUC in Beagle dog at 5 mg/kg, po", "type": "ADME, organism-based, Canis lupus familiaris", "settings": "in vivo"}, "[19]": {"assay": "Protein binding in dog plasma assessed as bound fraction", "type": "ADME, cell-free, Canis lupus familiaris", "settings": "read-out: PPB (converted)"}},
  "note": "Calls of active or inactive are those of the source. The calls are words filed in the database; no cut-off is given here.",
  "data": [
    {"smiles": "COc1cc(C)[nH]c(=O)c1CNC(=O)c1c(C)n([C@H](C)C2CCN(CC(F)(F)F)CC2)c2ccccc12", "note": "[CPI-1205]", "values": [
      {"measurement": "CL free", "setting": "[1]", "result": 242, "unit": "mL/min/kg"},
      {"measurement": "AUC", "setting": "[2]", "result": 88.88, "unit": "µM·h"},
      {"measurement": "CL free", "setting": "[3]", "result": 1715, "unit": "mL/min/kg"},
      {"measurement": "half-life", "setting": "[4]", "result": 1.63, "unit": "h"},
      {"measurement": "inhibition in vivo at 160 mg/kg", "setting": "KARPAS-422 [5]", "result": "> 97", "unit": "%"},
      {"measurement": "F", "setting": "[6]", "result": 46.2, "unit": "%"},
      {"measurement": "half-life", "setting": "[7]", "result": 0.653, "unit": "h"},
      {"measurement": "Cmax", "setting": "[8]", "result": 67.4, "unit": "µM"},
      {"measurement": "TDI", "setting": "Cytochrome P450 2C8", "result": "Not Active"},
      {"measurement": "Cmax", "setting": "[9]", "result": 1.24, "unit": "µM"},
      {"measurement": "AUC(0-inf)", "setting": "[10]", "result": 3.19, "unit": "µM·h"},
      {"measurement": "CL", "setting": "[11]", "result": 40, "unit": "%"},
      {"measurement": "inhibition at 10 µM", "setting": "CYP2D6", "result": 9.5, "unit": "%"},
      {"measurement": "CLH", "setting": "[12]", "result": 73.9, "unit": "µL/min"},
      {"measurement": "IC50", "setting": "[13]", "result": 52, "unit": "nM"},
      {"measurement": "Activity", "setting": "[14]", "result": "Non-Toxic"},
      {"measurement": "inhibition at 10 µM", "setting": "CYP2C9", "result": 11.1, "unit": "%"},
      {"measurement": "TDI", "setting": "Cytochrome P450 2D6", "result": "Not Active"},
      {"measurement": "Activity", "setting": "KARPAS-422 [15]", "result": "Active"},
      {"measurement": "inhibition at 10 µM", "setting": "CYP2C8", "result": 41, "unit": "%"},
      {"measurement": "Vd", "setting": "[16]", "result": 1.36, "unit": "L/kg"},
      {"measurement": "half-life", "setting": "[17]", "result": 1.84, "unit": "h"},
      {"measurement": "fAUC", "setting": "[18]", "result": 0.309, "unit": "µM·h"},
      {"measurement": "fraction unbound", "setting": "[19]", "result": 0.097}
    ]}
  ]
}
